Assay results from US6936585B2, “Corticotropin releasing factor 2 receptor agonists” (priority 2002, dated 2005).
Read-outs that look alike come from different tables or passages of the source. Ends that are not written are not given here. Peptide text beside a SMILES is read from it.

Tests used:
CRF2R = biological target: T1, CRF2R (Homo sapiens, UniProt Q13324); experiment: CRF2R agonist activation (EC50 / Emax), called comparative CRF binding; assay type: cell-based
T1 sequence (Q13324 1-411): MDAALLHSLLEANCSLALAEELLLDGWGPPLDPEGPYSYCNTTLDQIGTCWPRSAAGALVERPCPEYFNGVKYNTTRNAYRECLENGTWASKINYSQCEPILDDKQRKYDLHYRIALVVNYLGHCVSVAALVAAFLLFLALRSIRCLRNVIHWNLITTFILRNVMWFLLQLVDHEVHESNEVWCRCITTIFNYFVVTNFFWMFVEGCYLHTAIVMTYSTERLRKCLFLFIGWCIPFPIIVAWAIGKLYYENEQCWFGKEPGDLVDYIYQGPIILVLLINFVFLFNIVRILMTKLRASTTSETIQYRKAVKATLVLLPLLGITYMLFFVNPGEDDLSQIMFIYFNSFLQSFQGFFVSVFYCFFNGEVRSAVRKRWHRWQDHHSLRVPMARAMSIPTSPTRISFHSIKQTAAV
In short: (§1)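 Cells expressing full-length human CRF1R or CRF2R were exposed to peptide or vehicle control, and receptor activation was gauged as cAMP induction. cAMP was measured in cell lysates or via a cAMP-responsive element driving a reporter gene such as luciferase, CAT, GFP or alkaline phosphatase.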

CRF1R = biological target: T2, CRF1R (Homo sapiens, UniProt P34998); experiment: CRF1R agonist activation (EC50 / Emax), called comparative CRF binding; assay type: cell-based
T2 sequence (P34998 24-415): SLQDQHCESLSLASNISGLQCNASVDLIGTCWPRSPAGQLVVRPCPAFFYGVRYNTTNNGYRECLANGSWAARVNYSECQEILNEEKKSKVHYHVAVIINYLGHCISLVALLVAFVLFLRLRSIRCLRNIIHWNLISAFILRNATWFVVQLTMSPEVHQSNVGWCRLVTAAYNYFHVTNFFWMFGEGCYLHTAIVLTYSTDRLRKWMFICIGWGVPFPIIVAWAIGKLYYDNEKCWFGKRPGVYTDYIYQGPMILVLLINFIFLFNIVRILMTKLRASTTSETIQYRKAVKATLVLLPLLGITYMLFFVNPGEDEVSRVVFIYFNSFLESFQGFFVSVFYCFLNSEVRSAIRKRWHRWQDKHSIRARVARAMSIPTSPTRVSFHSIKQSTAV
In short: as §1

Molecule | Emax (CRF2R; read-out: CRF2R Emax) [%] | Emax (CRF1R; read-out: CRF1R Emax) [%] | EC50 (CRF2R) [nM] | Emax (CRF2R; Emax, read-out: CRF2R (Emax %)) [%] | EC50 (CRF1R) [nM] | Emax (CRF1R; Emax, read-out: CRF1R (Emax %)) [%]
CC[C@H](C)[C@H](N)C(=O)N[C@H](C(=O)N[C@@H](CC(C)C)C(=O)N[C@@H](CO)C(=O)N[C@@H](CC(C)C)C(=O)N[C@@H](CC(=O)O)C(=O)N[C@H](C(=O)N1CCC[C@H]1C(=O)N[C@H](C(=O)NCC(=O)N[C@@H](CC(C)C)C(=O)N[C@@H](CC(C)C)C(=O)N[C@@H](CCC(N)=O)C(=O)N[C@H](C(=O)N[C@@H](CC(C)C)C(=O)N[C@@H](CC(C)C)C(=O)N[C@@H](CCC(=O)O)C(=O)N[C@@H](CCSC)C(=O)N[C@H](C(=O)N[C@@H](CCCCN)C(=O)N[C@@H](C)C(=O)N[C@@H](CC(=O)O)C(=O)N[C@@H](CCC(N)=O)C(=O)N[C@@H](CC(C)C)C(=O)N[C@@H](C)C(=O)N[C@@H](CCC(N)=O)C(=O)N[C@@H](CCC(N)=O)C(=O)N[C@@H](C)C(=O)N[C@@H](Cc1c[nH]cn1)C(=O)N[C@@H](CO)C(=O)N[C@@H](CC(N)=O)C(=O)N[C@@H](CCCNC(=N)N)C(=O)N[C@@H](CCCCN)C(=O)N[C@@H](CC(C)C)C(=O)N[C@@H](CC(C)C)C(=O)N[C@@H](CC(=O)O)C(=O)N[C@H](C(=O)N[C@@H](C)C(N)=O)[C@@H](C)CC)[C@@H](C)O)[C@@H](C)CC)[C@@H](C)CC)C(C)C)C(C)C [compound 155] (H-IVLSLDVPIGLLQILLEMTKADQLAQQAHSNRKLLDIA-NH2; N-terminus assumed) | 94 | 16 | – | – | – | –
CC[C@H](C)[C@H](NC(=O)[C@H](CCCNC(=N)N)NC(=O)[C@H](C)NC(=O)[C@H](CC(N)=O)NC(=O)[C@H](CCC(N)=O)NC(=O)[C@H](CCC(=O)O)NC(=O)[C@H](C)NC(=O)[C@H](CCCNC(=N)N)NC(=O)[C@H](CCC(=O)O)NC(=O)[C@H](CCCNC(=N)N)NC(=O)[C@H](CCC(N)=O)NC(=O)[C@H](CO)NC(=O)[C@H](CCC(N)=O)NC(=O)[C@@H](NC(=O)[C@H](CCCCN)NC(=O)[C@H](CCC(=O)O)NC(=O)[C@H](CC(C)C)NC(=O)[C@H](CCC(=O)O)NC(=O)[C@H](CC(C)C)NC(=O)[C@H](CC(C)C)NC(=O)[C@@H](NC(=O)[C@H](CCCNC(=N)N)NC(=O)[C@H](CC(C)C)NC(=O)[C@H](CC(C)C)NC(=O)[C@@H](NC(=O)[C@H](CC(C)C)NC(=O)[C@@H]1CCCN1C(=O)[C@H](CC(C)C)NC(=O)[C@H](CC(=O)O)NC(=O)[C@@H](NC(=O)[C@H](CO)NC(=O)[C@H](CC(C)C)NC(=O)[C@H](CO)NC(=O)[C@@H]1CCCN1)[C@@H](C)CC)[C@@H](C)CC)[C@@H](C)O)[C@@H](C)O)C(=O)N[C@@H](Cc1ccccc1)C(=O)N[C@@H](C)C(=O)N[C@@H](CCCNC(=N)N)C(=O)N[C@H](C(N)=O)C(C)C [compound 332] (H-PSLSIDLPLILLRTLLELEKTQSQRERAEQNARIFARV-NH2; N-terminus assumed) | 100 | 61.3 | – | – | – | –
CC[C@H](C)[C@H](NC(=O)[C@H](C)NC(=O)[C@H](CC(N)=O)NC(=O)[C@H](CCC(N)=O)NC(=O)[C@H](CCC(=O)O)NC(=O)[C@H](C)NC(=O)[C@H](CCCNC(=N)N)NC(=O)[C@H](CCC(=O)O)NC(=O)[C@H](CCCNC(=N)N)NC(=O)[C@H](CCC(N)=O)NC(=O)[C@H](CO)NC(=O)[C@H](CCC(N)=O)NC(=O)[C@@H](NC(=O)[C@H](CCCNC(=N)N)NC(=O)[C@H](C)NC(=O)[C@H](CC(C)C)NC(=O)[C@H](CCC(=O)O)NC(=O)[C@H](CC(C)C)NC(=O)[C@H](CC(C)C)NC(=O)[C@@H](NC(=O)[C@H](CCCNC(=N)N)NC(=O)[C@H](CC(C)C)NC(=O)[C@H](CC(C)C)NC(=O)[C@H](Cc1ccc(O)cc1)NC(=O)[C@H](CCC(N)=O)NC(=O)[C@@H]1CCCN1C(=O)[C@H](CC(C)C)NC(=O)[C@H](CC(=O)O)NC(=O)[C@@H](NC(=O)[C@H](CO)NC(=O)[C@H](CC(C)C)NC(=O)[C@H](CO)NC(=O)[C@@H]1CCCN1C(=O)[C@H](CC(N)=O)NC(=O)[C@@H](N)CC(=O)O)[C@@H](C)CC)[C@@H](C)O)[C@@H](C)O)C(=O)N[C@H](C(=O)N[C@@H](Cc1ccccc1)C(=O)N[C@@H](C)C(=O)N[C@@H](CO)C(=O)N[C@H](C(N)=O)C(C)C)[C@@H](C)CC [compound 339] (H-DNPSLSIDLPQYLLRTLLELARTQSQRERAEQNAIIFASV-NH2) | 47.9 | 13.2 | – | – | – | –
CC[C@H](C)[C@H](N)C(=O)N[C@H](C(=O)N[C@@H](CC(C)C)C(=O)N[C@@H](CO)C(=O)N[C@@H](CC(C)C)C(=O)N[C@@H](CC(=O)O)C(=O)N[C@H](C(=O)N1CCC[C@H]1C(=O)N[C@H](C(=O)NCC(=O)N[C@@H](CC(C)C)C(=O)N[C@@H](CC(C)C)C(=O)N[C@@H](CCC(N)=O)C(=O)N[C@H](C(=O)N[C@@H](CC(C)C)C(=O)N[C@@H](CC(C)C)C(=O)N[C@@H](CCC(=O)O)C(=O)N[C@@H](CCC(N)=O)C(=O)N[C@H](C(=O)N[C@@H](CCCCN)C(=O)N[C@@H](C)C(=O)N[C@@H](CC(N)=O)C(=O)N[C@@H](C)C(=O)N[C@@H](C)C(=O)N[C@@H](CCCNC(=N)N)C(=O)N[C@@H](CCC(=O)O)C(=O)N[C@@H](CCC(N)=O)C(=O)N[C@@H](C)C(=O)N[C@H](C(=O)N[C@H](C(=O)N[C@H](C(=O)N[C@@H](C)C(=O)N[C@@H](CCCNC(=N)N)C(=O)N[C@H](C(=O)N[C@@H](CC(C)C)C(=O)N[C@@H](C)C(=O)N[C@@H](CCCNC(=N)N)C(=O)N[C@H](C(N)=O)C(C)C)[C@@H](C)CC)C(C)C)[C@@H](C)O)[C@@H](C)O)[C@@H](C)O)[C@@H](C)CC)[C@@H](C)CC)C(C)C)C(C)C [compound 116] (H-IVLSLDVPIGLLQILLEQTKANAAREQATTVARILARV-NH2) | 26.4 | 4.8 | – | – | – | –
CC[C@H](C)[C@H](NC(=O)[C@H](CC(=O)O)NC(=O)[C@H](CC(C)C)NC(=O)[C@H](CC(C)C)NC(=O)[C@H](CCCCN)NC(=O)[C@H](CCCNC(=N)N)NC(=O)[C@H](CC(N)=O)NC(=O)[C@H](CO)NC(=O)[C@H](Cc1c[nH]cn1)NC(=O)[C@H](C)NC(=O)[C@H](CCC(N)=O)NC(=O)[C@H](CCC(N)=O)NC(=O)[C@H](C)NC(=O)[C@H](CC(C)C)NC(=O)[C@H](CCC(N)=O)NC(=O)[C@H](CC(=O)O)NC(=O)[C@H](C)NC(=O)[C@H](CCCCN)NC(=O)[C@@H](NC(=O)[C@H](CCSC)NC(=O)[C@H](CCC(=O)O)NC(=O)[C@H](CC(C)C)NC(=O)[C@@H](NC(=O)[C@H](CCC(=O)O)NC(=O)[C@H](CCCNC(=N)N)NC(=O)[C@H](CC(C)C)NC(=O)[C@H](CC(C)C)NC(=O)[C@H](Cc1c[nH]cn1)NC(=O)[C@H](Cc1ccccc1)NC(=O)[C@@H](NC(=O)[C@H](CC(C)C)NC(=O)[C@H](CC(=O)O)NC(=O)[C@H](CC(C)C)NC(=O)[C@H](CO)NC(=O)[C@@H](NC(=O)[C@@H]1CCCN1C(=O)[C@@H]1CCCN1C(=O)[C@H](CCC(=O)O)NC(=O)[C@H](CCC(N)=O)NC(=O)[C@@H](N)CO)[C@@H](C)CC)[C@@H](C)O)C(C)C)[C@@H](C)O)C(=O)N[C@@H](C)C(N)=O [oCRF, sheep corticotropin releasing factor, reference compound] | – | – | > 100 | 33 | 27.4 | 98
SQEPPISLDLPTQLLREVLEMTKADQLAQQAHSNRKLLDIA-NH2 [compound 105] | 9.15 | 5.2 | – | – | – | –
CC[C@H](C)[C@H](NC(=O)[C@H](C)NC(=O)[C@H](CC(N)=O)NC(=O)[C@H](CCC(N)=O)NC(=O)[C@H](CCC(=O)O)NC(=O)[C@H](C)NC(=O)[C@H](CCCNC(=N)N)NC(=O)[C@H](CCC(=O)O)NC(=O)[C@H](CCCNC(=N)N)NC(=O)[C@H](CCC(N)=O)NC(=O)[C@H](CO)NC(=O)[C@H](CCC(N)=O)NC(=O)[C@@H](NC(=O)[C@H](CCCNC(=N)N)NC(=O)[C@H](C)NC(=O)[C@H](CC(C)C)NC(=O)[C@H](CCC(=O)O)NC(=O)[C@H](CC(C)C)NC(=O)[C@H](CC(C)C)NC(=O)[C@@H](NC(=O)[C@H](CCCNC(=N)N)NC(=O)[C@H](CC(C)C)NC(=O)[C@H](CC(C)C)NC(=O)[C@H](Cc1ccc(O)cc1)NC(=O)[C@H](CC(C)C)NC(=O)[C@@H]1CCCN1C(=O)[C@H](CC(C)C)NC(=O)[C@H](CC(=O)O)NC(=O)[C@@H](NC(=O)[C@H](CO)NC(=O)[C@H](CC(C)C)NC(=O)[C@H](CO)NC(=O)[C@@H]1CCCN1C(=O)[C@H](CC(N)=O)NC(=O)[C@@H](N)CC(=O)O)[C@@H](C)CC)[C@@H](C)O)[C@@H](C)O)C(=O)N[C@H](C(=O)N[C@@H](Cc1ccccc1)C(=O)N[C@@H](C)C(=O)N[C@@H](CO)C(=O)N[C@H](C(N)=O)C(C)C)[C@@H](C)CC [compound 177] (H-DNPSLSIDLPLYLLRTLLELARTQSQRERAEQNAIIFASV-NH2; N-terminus assumed) | 97.7 | 69.2 | – | – | – | –
